The term IC50 denotes the concentration needed to halve the response being measured. As usually defined, the melting point is the temperature, or range, at which the solid turns liquid.

The target in one data set is T1, p38α (Homo sapiens, UniProt Q16539).
T1 construct: p38 MAP Kinases are recombinant human full-length proteins with an amino-terminal GST fusion; GST (N); purchased Upstate Biotechnology Inc; host or cells: E. coli
Kind of data set: p38 MAP Kinase assay: inhibition of ATF2 phosphorylation, ELISA. The settings on record: ATF2 phosphorylation; read-out: [ENZ] P38 ALPHA, IC50, ELISA. The format is biochemical. The gist of the method: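 In vitro phosphorylation of ATF2 at Thr69 by recombinant human GST-p38 MAP kinase, read by anti-phospho-ATF2 ELISA at 450 nm. Enzyme and compound pre-incubated 15 min at RT, then 30 min reaction at 37 °C with 40 μM ATP and 1.25 μM ATF2; buffer with or without 1% HSA (Method II or I).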
For orientation: ELISA stands for enzyme-linked immunosorbent assay.

The subject of data set [1] is TNFα release from THP-1 cells. Kind of data set: Inhibition of TNFα release from LPS-stimulated THP-1 cells, ELISA. The settings on record: Homo sapiens, THP-1, THP-1 cells, read-out: [CELL] THP-1, IC50, TNF ALPHA, ELISA. It is filed as cell-based. The gist of the method: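 TNFα released into supernatant after 18 h of 10 μg/ml LPS stimulation was quantified by ELISA and IC50 taken as 50% reduction by non-linear regression. THP-1 cells (10^6/ml; medium with 10% FBS, serum-free or 1% HSA) saw compound for 30 min at 37 °C beforehand; final DMSO ≤0.5%.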

T1 sequence (Q16539 whole entry, the tested form may be a part): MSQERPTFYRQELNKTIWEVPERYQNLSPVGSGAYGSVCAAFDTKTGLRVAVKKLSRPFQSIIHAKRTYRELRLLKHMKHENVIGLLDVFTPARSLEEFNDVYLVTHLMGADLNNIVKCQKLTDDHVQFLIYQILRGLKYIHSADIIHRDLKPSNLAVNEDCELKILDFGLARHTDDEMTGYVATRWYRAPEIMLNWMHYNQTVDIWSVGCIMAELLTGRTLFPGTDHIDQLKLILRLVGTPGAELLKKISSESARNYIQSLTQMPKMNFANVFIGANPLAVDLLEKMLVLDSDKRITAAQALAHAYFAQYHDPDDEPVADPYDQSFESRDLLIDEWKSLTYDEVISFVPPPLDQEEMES

In turn, `CN(CC1OCCO1)c1nccc(Oc2ccc(NC(=O)c3cc(F)cc(N4CCCCC4)c3)c3ccccc23)n1` [Compound B395, N-[4-({2-[(1,3-Dioxolan-2-ylmethyl)(methyl)amino]pyrimidin-4-yl}oxy)-1-naphthyl]-3-fluoro-5-piperidin-1-ylbenzamide] yielded a melting point of 125 to 127 °C. On p38α, the 50% inhibitory concentration (IC50) came out at 31.3 nM. For the same molecule, the IC50 in data set [1] worked out at 212 nM.
For `CC(C)(C)OC(=O)N1CCN(c2nccc(Oc3ccc(NC(=O)c4cc(F)cc(N5CCCCC5)c4)c4ccccc34)n2)CC1` [Compound B397, tert-Butyl-4-[4-({4-[(3-fluoro-5-piperidin-1-ylbenzoyl)amino]-1-naphthyl}oxy)pyrimidin-2-yl]piperazine-1-carboxylate], in that order: 175 to 177 °C, 109 nM and > 1000 nM.
`CCN1CCN(c2nccc(Oc3ccc(NC(=O)c4cc(F)cc(N5CCCCC5)c4)c4ccccc34)n2)CC1` [Compound B398, N-(4-{[2-(4-Ethylpiperazin-1-yl)pyrimidin-4-yl]oxy}-1-naphthyl)-3-fluoro-5-piperidin-1-ylbenzamide]: the melting point lay within 86 to 87 °C. The concentration for half-maximal inhibition (IC50) at p38α came to 7.9 nM. Also, in data set [1], the half-inhibitory concentration (IC50) was 241 nM.
On to `CC(=O)N1CCN(c2nccc(Oc3ccc(NC(=O)c4cc(F)cc(N5CCCCC5)c4)c4ccccc34)n2)CC1` [Compound B400, N-(4-{[2-(4-Acetylpiperazin-1-yl)pyrimidin-4-yl]oxy}-1-naphthyl)-3-fluoro-5-piperidin-1-ylbenzamide], for which the melting point lay in the range of 102 to 104 °C. Also, the 50% inhibitory concentration (IC50) at p38α turned out to be 7.4 nM. The half-inhibitory concentration (IC50) in data set [1] came to 565 nM.
The corresponding values for `O=C(Nc1ccc(Oc2ccnc(N3CCCC(O)C3)n2)c2ccccc12)c1cc(F)cc(N2CCCCC2)c1` (stereo not drawn) [Compound B402, 3-Fluoro-N-(4-{[2-(3-hydroxypiperidin-1-yl)pyrimidin-4-yl]oxy}-1-naphthyl)-5-piperidin-1-ylbenzamide] are 93 to 95 °C, 14.6 nM and 655 nM.
The molecule `COC(CN(C)c1nccc(Oc2ccc(NC(=O)c3cc(F)cc(N4CCCCC4)c3)c3ccccc23)n1)OC` [Compound B403, N-[4-({2-[(2,2-Dimethoxyethyl)(methyl)amino]pyrimidin-4-yl}oxy)-1-naphthyl]-3-fluoro-5-piperidin-1-ylbenzamide] returned a melting point of 135 to 136 °C. For the same molecule, the half-maximal inhibitory concentration (IC50) at p38α is 48.3 nM. Moreover, the half-inhibitory concentration (IC50) in data set [1] is 254 nM.
In turn, `CC1CCCN1c1nccc(Oc2ccc(NC(=O)c3cc(F)cc(N4CCCCC4)c3)c3ccccc23)n1` (stereo not drawn) [Compound B404, 3-Fluoro-N-(4-{[2-(2-methylpyrrolidin-1-yl)pyrimidin-4-yl]oxy}-1-naphthyl)-5-piperidin-1-ylbenzamide] registered a melting point of 93 to 94 °C. Moreover, at p38α, the 50% inhibitory concentration (IC50) is 151 nM. In addition, the half-inhibitory concentration (IC50) in data set [1] was determined as 1120 nM.
Regarding `CN(C)[C@@H]1CCN(c2nccc(Oc3ccc(NC(=O)c4cc(F)cc(N5CCCCC5)c4)c4ccccc34)n2)C1` [Compound B405, N-[4-({2-[(3R)-3-(Dimethylamino)pyrrolidin-1-yl]pyrimidin-4-yl}oxy)-1-naphthyl]-3-fluoro-5-piperidin-1-ylbenzamide], the melting point is 93 to 94 °C. For the same molecule, the IC50 at p38α was found to be 30.4 nM. In addition, the half-inhibitory concentration (IC50) in data set [1] came out at 202 nM.
The corresponding values for `C#CCN(C)c1nccc(Oc2ccc(NC(=O)c3cc(F)cc(N4CCCCC4)c3)c3ccccc23)n1` [Compound B407, 3-Fluoro-N-[4-({2-[methyl(prop-2-yn-1-yl)amino]pyrimidin-4-yl}oxy)-1-naphthyl]-5-piperidin-1-ylbenzamide] are 116 to 117 °C, 56.1 nM and 700 nM.
In turn, `CC(C)(C)OC(=O)NC1CCN(c2nccc(Oc3ccc(NC(=O)c4cc(F)cc(N5CCCCC5)c4)c4ccccc34)n2)CC1` [Compound B410, tert-Butyl{1-[4-({4-[(3-fluoro-5-piperidin-1-ylbenzoyl)amino]-1-naphthyl}oxy)pyrimidin-2-yl]piperidin-4-yl}carbamate] gave a melting point of 211 to 212 °C. Moreover, the 50% inhibitory concentration (IC50) at p38α stood at 90.9 nM. In data set [1], the IC50 is > 1000 nM.
`O=C(Nc1ccc(Oc2ccnc(NCC3OCCO3)n2)c2ccccc12)c1cc(F)cc(N2CCCCC2)c1` [Compound B411, N-[4-({2-[(1,3-Dioxolan-2-ylmethyl)amino]pyrimidin-4-yl}oxy)-1-naphthyl]-3-fluoro-5-piperidin-1-ylbenzamide]: the melting point fell in the range of 96 to 98 °C. The IC50 on p38α is 1.7 nM. In addition, the concentration for half-maximal inhibition (IC50) in data set [1] was found to be 23.5 nM.
Molecule `COCCN(C)c1nccc(Oc2ccc(NC(=O)c3cc(F)cc(N4CCCCC4)c3)c3ccccc23)n1` [Compound B414, 3-Fluoro-N-[4-({2-[(2-methoxyethyl)(methyl)amino]pyrimidin-4-yl}oxy)-1-naphthyl]-5-piperidin-1-ylbenzamide] registered a melting point of 81 to 82 °C. In addition, on p38α, the IC50 was 28.9 nM. Moreover, the IC50 in data set [1] was determined as 580 nM.
The molecule `C[C@@H]1CN(c2nccc(Oc3ccc(NC(=O)c4cc(F)cc(N5CCCCC5)c4)c4ccccc34)n2)C[C@H](C)O1` [Compound B416, N-[4-({2-[(2R,6S)-2,6-Dimethylmorpholin-4-yl]pyrimidin-4-yl}oxy)-1-naphthyl]-3-fluoro-5-piperidin-1-ylbenzamide] returned a melting point of 174 to 176 °C. Further, on p38α, the concentration for half-maximal inhibition (IC50) was determined as 50.2 nM. Also, the IC50 in data set [1] worked out at 472 nM.
As to `CN(Cc1ccco1)c1nccc(Oc2ccc(NC(=O)c3cc(F)cc(N4CCCCC4)c3)c3ccccc23)n1` [Compound B418, 3-Fluoro-N-[4-({2-[(2-furylmethyl)(methyl)amino]pyrimidin-4-yl}oxy)-1-naphthyl]-5-piperidin-1-ylbenzamide], the melting point was 155 to 156 °C. Besides, the IC50 on p38α came to 102 nM. Moreover, the IC50 in data set [1] was determined as 538 nM.
The molecule `CN(C)C1CCN(c2nccc(Oc3ccc(NC(=O)c4cc(F)cc(N5CCCCC5)c4)c4ccccc34)n2)C1` (stereo not drawn) [Compound B420, N-[4-({2-[3-(Dimethylamino)pyrrolidin-1-yl]pyrimidin-4-yl}oxy)-1-naphthyl]-3-fluoro-5-piperidin-1-ylbenzamide] came in with a melting point of 108 to 110 °C. Besides, the IC50 at p38α amounted to 15.2 nM. For the same molecule, the IC50 in data set [1] came to 225 nM.
With `O=C1CN(c2nccc(Oc3ccc(NC(=O)c4cc(F)cc(N5CCCCC5)c4)c4ccccc34)n2)CCN1` [Compound B421, 3-Fluoro-N-(4-{[2-(3-oxopiperazin-1-yl)pyrimidin-4-yl]oxy}-1-naphthyl)-5-piperidin-1-ylbenzamide], the melting point lay within 140 to 142 °C. The IC50 on p38α came out at 17.8 nM. Besides, the half-maximal inhibitory concentration (IC50) in data set [1] was determined as 689 nM.
`CS(=O)(=O)CCNc1nccc(Oc2ccc(NC(=O)c3cc(F)cc(N4CCCCC4)c3)c3ccccc23)n1` [Compound B422, 3-Fluoro-N-{4-[(2-{[2-(methylsulfonyl)ethyl]amino}pyrimidin-4-yl)oxy]-1-naphthyl}-5-piperidin-1-ylbenzamide]: the melting point was 102 to 104 °C. In addition, the IC50 at p38α is 1.6 nM. Also, the IC50 in data set [1] was determined as 63.2 nM.
In the case of `O=C(Nc1ccc(Oc2ccnc(N3CCC(F)(F)CC3)n2)c2ccccc12)c1cc(F)cc(N2CCCCC2)c1` [Compound B423, N-(4-{[2-(4,4-Difluoropiperidin-1-yl)pyrimidin-4-yl]oxy}-1-naphthyl)-3-fluoro-5-piperidin-1-ylbenzamide], the melting point lay within 172 to 174 °C. The half-maximal inhibitory concentration (IC50) at p38α turned out to be 111 nM. In data set [1], the IC50 stood at 773 nM.
As for `Cc1ncsc1CCOc1ccc(NC(=O)c2cc(F)cc(N3CCCCC3)c2)c2ccccc12` [Compound B424, 3-Fluoro-N-{4-[2-(4-methyl-1,3-thiazol-5-yl)ethoxy]-1-naphthyl}-5-piperidin-1-ylbenzamide], the melting point lay within 221 to 222 °C. Further, the concentration for half-maximal inhibition (IC50) at p38α was 39.9 nM. Also, in data set [1], the concentration for half-maximal inhibition (IC50) worked out at 2210 nM.

For the origin of these results see patent US7829560B2, “1,4-disubstituted naphthalenes as inhibitors of P38 MAP kinase” (Arqule, Inc., priority 2004, dated 2010).
